Results: US20120083522A1, “MODULATION OF INFLAMMATORY RESPONSES BY FACTOR XI” (Isis Pharmaceuitcals, inc., priority 2009, published 2012)
In the oligonucleotide strings, read from the 5' end, every base follows the letter of its sugar. An asterisk marks phosphorothioate; unmarked linkages are phosphodiester. Other units and linkages are bracketed, terminal groups are in braces. A string of capitals states the bases alone. e = 2'-O-(2-methoxyethyl) (MOE); [5mC] = 5-methylcytosine; d = 2'-deoxy (DNA)

Key:
[1] = Tolerability in CD1 mice: body and organ weight (Example 25); format: in vivo; details: 50 mg/kg s.c. twice per week for 6 weeks
[2] = Cynomolgus monkeys: body and organ weights (Example 29); format: in vivo
Description: Groups, each consisting of two male and three female monkeys, were injected subcutaneously with ISIS 416838, ISIS 416850, ISIS 416858, ISIS 416864, or ISIS 417002 in escalating doses. Antisense oligonucleotide was administered to the monkeys at 5 mg/kg three times per a week for week 1; 5 mg/kg twice per week for weeks 2 and 3; 10 mg/kg three times per week for week 4; 10 mg/kg twice per week for weeks 5 and 6; 25 mg/kg three times per week for week 7; and 25 mg/kg twice per week for weeks 8, 9, 10, 11, and 12. One control group, consisting of two male and three female monkeys, was injected subcutaneously with PBS according to the same dosing regimen. An additional experimental group, consisting of two male and three female monkeys, was injected subcutaneously with ISIS 416850 in a chronic, lower dose regimen. Antisense oligonucleotide was administered to the monkeys at 5 mg/kg three times per week for week 1; 5 mg/kg twice per week for week 2 and 3; 10 mg/kg three times per week for week 4; and 10 mg/kg twice per week for weeks 5 to 12. Body weights were measured weekly. Blood samples were collected 14 days and 5 days before the start of treatment and subsequently once per week for Factor XI protein activity analysis in plasma and measurement of various hematologic factors. On day 85, the monkeys were euthanized by exsanguination while under deep anesthesia, and organs harvested for further analysis.
Body weights were taken once weekly throughout the dosing regimen. […] Organ weights were taken after the animals were euthanized and livers, kidneys and spleens were harvested and weighed. […] The ISIS oligonucleotide, ISIS 416850, given with the chronic dose regimen is distinguished from the other oligonucleotides with an asterisk (*).

bradykinin = test: Colitis Study D: bradykinin levels in colon; format: in vivo, Swiss Webb mice; details: for Bradykinin levels in colon: DSS-treated mice
Description: In a first group of 8 Swiss Webb mice, 10 mg/kg of ISIS 404071 was injected subcutaneously twice a week for 3 weeks. In a second group of 8 Swiss Webb mice, 20 mg/kg of ISIS 404057 was subcutaneously injected twice a week for 3 weeks. In a third control group of 8 Swiss Webb mice, 40 mg/kg of ISISI 404057 was injected subcutaneously twice a week for 3 weeks. Two control groups of 8 mice each were injected with PBS twice a week for 3 weeks. After the oligonucleotide treatment, 4% DSS in water was administered ad libitum for 7 days to all the experimental groups and one PBS control group.
The effect of antisense inhibition of Factor XI on kinin levels in the colon was evaluated (Phoenix Pharmaceuticals, Burlingame, Calif.) and the results are presented in Table 32.

Factor XI mRNA = test: Colitis Study E: Factor XI mRNA levels; format: in vivo, Swiss Webb mice; details: compared to untreated PBS control; for % inhibition of Factor XI mRNA levels: DSS-treated mice, 40 mpk
Description: (§1) Two groups 8 Swiss Webb mice were dosed with 40 mg/kg of ISIS 404071 injected subcutaneously twice a week for 3 weeks. Two control groups of 8 Swiss Webb mice were dosed with PBS subcutaneously twice a week for 3 weeks. Both the ASO treated groups and one of the control groups were then given 4% DSS in distilled water for 7 days ad libitum. One of the ASO and DSS treated groups was also given intravenous injections of 20 μg of recombinant human Factor XI protein (Haematologic Technologies Inc.) for 7 consecutive days, starting the day before DSS treatment. Mice were sacrificed at the end of the study on day 7 after DSS was administered.

[3] = test system: thrombin-antithrombin (TAT) complexes; test: Colitis Study E: TAT levels; format: in vivo, Swiss Webb mice; details: for TAT levels: colon, DSS-treated mice, day 7, 40 mpk
Description: as §1
Mice with dextran sodium sulfate (DSS)-induced colitis have elevated level of thrombin-antithrombin (TAT) complexes in blood (Anthoni, C. et al., J. Exp. Med. 204: 1595-1601, 2007) and is also observed in patients with ulcerative colitis (Kume, K. et al., Intern Med. 2007. 46: 1323-9). The effect of antisense inhibition of Factor XI on TAT levels in the […] was evaluated (Siemens Healthcare Diagnostics, Deerfield, Ill.) at the end of the study on day 7 after DSS was administered and the results are presented in Table 38.

[4] = test system: DSS-induced colitis model; test: Colitis Study F: body weight, stool scores, colon length and weight; format: in vivo, Swiss Webb mice
Description: In a first group of 8 Swiss Webb mice, 50 mg/kg of ISIS 404071 was injected subcutaneously twice a week for 3 weeks. Two control groups of 8 mice each were injected with PBS twice a week for 3 weeks. After the oligonucleotide treatment, 4% DSS in water was administered ad libitum for 7 days to the experimental group and one PBS control group. Mice were sacrificed at the end of the study on day 7 after DSS was administered.
Mice in all groups were weighed at day 0 and daily for 7 days after administration of DSS. Mice were sacrificed at the end of the study on day 7 after DSS was administered and their colon lengths and weight were measured as shown in Table 45.

[5] = plus human recombinant FXI 20 ug/mouse/day
[6] = DSS-treated mice, 50 mg/kg, day 7

**Q.** Which “Body weight (increase over PBS control weight before start of treatment)” value [1] does the source give for “ISIS 416850: gapmer of Table 8 (antisense eT*eG*e[5mC]*eA*e[5mC]*dA*dG*dT*dT*dT*d[5mC]*dT*dG*dG*d[5mC]*eA*eG*eG*e[5mC]*e[5mC])” here?
**A.** Its value is 11 g.

**Q.** What about the “Kidney weight as percentage of body weight” value ([1]; end of study) of the same substance?
**A.** Its value is 1.5%.

**Q.** What about the “Liver weight as percentage of body weight” value ([1]; end of study) of the same substance?
**A.** The value was 6%.

**Q.** What about the “Spleen weight as percentage of body weight” value ([1]; end of study) of the same substance?
**A.** The value was 0.4%.

**Q.** What about the Body weight ([2]; chronic, lower dose regimen (*) 5 then 10 mg/kg s.c., day 1) of the same substance?
**A.** Its Body weight is 2665 g.

**Q.** What about the Body weight ([2]; chronic, lower dose regimen (*) 5 then 10 mg/kg s.c., day 8) of the same substance?
**A.** Its Body weight is 2579 g.

**Q.** And the Body weight ([2]; chronic, lower dose regimen (*) 5 then 10 mg/kg s.c., day 15)?
**A.** The Body weight was 2607 g.

**Q.** What about the Body weight ([2]; chronic, lower dose regimen (*) 5 then 10 mg/kg s.c., day 22) of the same substance?
**A.** The Body weight was 2661 g.

**Q.** And the Body weight ([2]; chronic, lower dose regimen (*) 5 then 10 mg/kg s.c., day 29)?
**A.** Its Body weight is 2667 g.

**Q.** And the Body weight ([2]; chronic, lower dose regimen (*) 5 then 10 mg/kg s.c., day 36)?
**A.** The Body weight was 2656 g.

**Q.** And the Body weight ([2]; chronic, lower dose regimen (*) 5 then 10 mg/kg s.c., day 43)?
**A.** The Body weight was 2670 g.

**Q.** And the Body weight ([2]; chronic, lower dose regimen (*) 5 then 10 mg/kg s.c., day 50)?
**A.** Its Body weight is 2679 g.

**Q.** And the Body weight ([2]; escalating doses 5, 10, 25 mg/kg s.c., day 1)?
**A.** The Body weight was 2572 g.

**Q.** And the Body weight ([2]; escalating doses 5, 10, 25 mg/kg s.c., day 8)?
**A.** Its Body weight is 2430 g.

**Q.** And the Body weight ([2]; escalating doses 5, 10, 25 mg/kg s.c., day 15)?
**A.** The Body weight was 2474 g.

**Q.** And the Body weight ([2]; escalating doses 5, 10, 25 mg/kg s.c., day 22)?
**A.** The Body weight was 2514 g.

**Q.** And the Body weight ([2]; escalating doses 5, 10, 25 mg/kg s.c., day 29)?
**A.** Its Body weight is 2515 g.

**Q.** What about the Body weight ([2]; escalating doses 5, 10, 25 mg/kg s.c., day 36) of the same substance?
**A.** The Body weight was 2545 g.

**Q.** What about the Body weight ([2]; escalating doses 5, 10, 25 mg/kg s.c., day 43) of the same substance?
**A.** The Body weight was 2544 g.

**Q.** What about the Body weight ([2]; escalating doses 5, 10, 25 mg/kg s.c., day 50) of the same substance?
**A.** Its Body weight is 2613 g.

**Q.** What about the Body weight ([2]; escalating doses 5, 10, 25 mg/kg s.c., day 57) of the same substance?
**A.** Its Body weight is 2629 g.

**Q.** And the Body weight ([2]; escalating doses 5, 10, 25 mg/kg s.c., day 64)?
**A.** The Body weight was 2642 g.

**Q.** And the Body weight ([2]; escalating doses 5, 10, 25 mg/kg s.c., day 71)?
**A.** The Body weight was 2769 g.

**Q.** And the Body weight ([2]; escalating doses 5, 10, 25 mg/kg s.c., day 78)?
**A.** Its Body weight is 2660 g.

**Q.** Which “bradykinin levels (in words)” value (bradykinin; Colitis Study D) does the source give for “TGGTAATCCACTTTCAGAGG (eT*eG*eG*eT*eA*dA*dT*d[5mC]*d[5mC]*dA*d[5mC]*dT*dT*dT*d[5mC]*eA*eG*eA*eG*eG) [ISIS 404071, 5-10-5 MOE gapmer targeting murine Factor XI, target start site 869]” here?
**A.** The value was “decreased”.

**Q.** And the “Bradykinin levels in colon” value (bradykinin; 10 mpk)?
**A.** The value was 0.03 ng/mg protein.

**Q.** What about the “Bradykinin levels in colon” value (bradykinin; 20 mpk) of the same substance?
**A.** The value was 0.00 ng/mg protein.

**Q.** What about the “Bradykinin levels in colon” value (bradykinin; 40 mpk) of the same substance?
**A.** Its value is 0.02 ng/mg protein.

**Q.** What about the “Factor XI levels (in words)” value (Factor XI mRNA; Colitis Study E, 40 mg/kg) of the same substance?
**A.** Its value is “significantly decreased”.

**Q.** What about the “% inhibition of Factor XI mRNA levels” value (Factor XI mRNA; no human recombinant FXI) of the same substance?
**A.** Its value is 82%.

**Q.** And the “% inhibition of Factor XI mRNA levels” value (Factor XI mRNA; [5])?
**A.** Its value is 83%.

**Q.** What about the “TAT levels (in words)” value ([3]; Colitis Study E, day 7) of the same substance?
**A.** The value was “decreased”.

**Q.** What about the TAT levels ([3]; no human recombinant FXI) of the same substance?
**A.** The TAT levels was 0.1 ng/mg protein.

**Q.** And the TAT levels [3, 5]?
**A.** The TAT levels was 0.8 ng/mg protein.

**Q.** And the “body weight (in words)” value ([4]; Colitis Study F, 50 mg/kg, compared to placebo)?
**A.** The value was “did not significantly affect body weight”.

**Q.** What about the “Body weight (day 0)” value ([4]; DSS-treated mice, 50 mg/kg s.c. twice a week for 3 weeks, day 0) of the same substance?
**A.** The value was 28 grams.

**Q.** What about the “Body weight (day 7)” value ([4]; DSS-treated mice, 50 mg/kg s.c. twice a week for 3 weeks, day 7) of the same substance?
**A.** The value was 24.7 grams.

**Q.** And the Stool score ([4]; DSS-treated mice, 50 mg/kg, Day 3)?
**A.** Its Stool score is 0.

**Q.** And the Stool score ([4]; DSS-treated mice, 50 mg/kg, Day 4)?
**A.** The Stool score was 0.25.

**Q.** And the Stool score ([4]; DSS-treated mice, 50 mg/kg, Day 5)?
**A.** Its Stool score is 1.

**Q.** What about the Stool score ([4]; DSS-treated mice, 50 mg/kg, Day 6) of the same substance?
**A.** The Stool score was 1.

**Q.** What about the Stool score ([4]; DSS-treated mice, 50 mg/kg, Day 7) of the same substance?
**A.** The Stool score was 1.

**Q.** What about the Colon length [4, 6] of the same substance?
**A.** The Colon length was 7.8 cm.

**Q.** And the Colon weight [4, 6]?
**A.** The Colon weight was 339.3 mg.
